What was measured:
B7 = details: read-out: Kd of CD28-B7 interaction; cited from earlier work
[1] = target: HLA-A2 (prepared as described in Example A1 and tagged with a biotin molecule); assay: SPR (BIAcore 3000), sCD8αα-specific response as a percentage of the initial response
MHC/peptide complex = details: cited from earlier work
[2] = target: tax 11-19 peptide-HLA-A2 complex (biotinylated); assay: SPR (BIAcore 3000), sTCR-specific response over repeated injections after compound mixtures
[3] = target: influenza matrix peptide-HLA-A2 complex (biotinylated) (influenza virus); assay: as above
[4] = tested on: class I MHC-restricted T cells; details: cited from earlier work

CD28: receptor with low affinity interaction with B7
Kd (B7): ~4 µM

recombinant soluble form of CD8 (sCD8αα) (from UniProt P01732 22-141) (receptor)
loss of signal over the run [1]: 3.6%

CD8: T cell coreceptor binding class I MHC/peptide complex
off rate from an MHC/peptide complex (MHC/peptide complex): approximately 10 s^−1
Kd (MHC/peptide complex; read-out: Kd of interaction with MHC/peptide complex): ~500 µM

A6 soluble T cell receptor (TCR)
loss of signal over the run [2]: 33%

JM22 soluble T cell receptor (TCR)
loss of signal after 10 mixtures [3]: 10.2%
loss of signal over the run [3]: 9.3%

soluble, recombinant CD8: soluble, recombinant CD8 derived from the human coreceptor
inhibition of class I MHC-restricted T cells responses [4]: potent inhibitor

From patent US20030104635A1, “Screening methods” (AVIDEX LIMITED, priority 1999, published 2003)
